Reference: ChEMBL document CHEMBL1133235, “Kinetic characterisation of ene-diol-based inhibitors of alpha-amylase” (Bioorg Med Chem Lett, 2000)

Test system: alpha-amylase (Hordeum vulgare)
Assay: Percent inhibition of Alpha-amylase activity was determined at 5 mM
Conditions: malt

**Q.** `O=C(O)/C(O)=C(\O)C(=O)O` was tested. Which inhibition did it give?
**A.** Its inhibition is 92%.
